Experiments:
[1] = tested on: Barley shoot tips / mature embryo explants; test: Multiple bud/shoot induction from barley mature embryo explants on bud induction media; type: in vivo; details: for multiple bud/shoot induction in barley shoot tips: relatively high amount of cytokinin to 2,4-D, 2 weeks
Procedure: To induce multiple buds/shoots from the leaf base of Barley shoot tips post co-culture, we applied medium with a high relative amount of cytokinin to auxin (measured by either concentration or relative activity). Explants were generally on these bud induction medium for a total of 2 weeks, after which presence of multiple buds/shoots was assessed (phenotype shown in FIG. 21, with data summarized in boxplot form in FIG. 22). […] In some experiments, after 1 week on induction media without selection, explants were transferred to induction media with selection. During this 2-week period explants were kept at 27 C 16/8 photoperiod. It may be possible to reduce chimerism in T0 Barley plants by extending this shoot multiplication step to 4-8 weeks.(9)
We followed this experiment up examining removal of 2,4-D from the bud induction phase, as well as its replacement with either picloram or fipexide.

[2] = tested on: LH244 maize iVAEs (immature embryos, 20 DAP); test: Glyphosate sensitivity (selection titer) of dried, frozen, rehydrated maize iVAEs on Regeneration II medium; type: in vivo
Procedure: Maize iVAEs (Immature Value-Added Explants) were prepared following the methods outlined below, and viability and glyphosate sensitivity of the dried, stored embryos were tested. These iVAEs were incubated for four days in a drying chamber with MgNO3 saturated salts and then stored at s −20° C. These frozen iVAEs were later pulled from storage and used to determine process survival as well as used in an experiment to determine sensitivity to the herbicide glyphosate (Millipore Sigma Glyphosate “N-(Phosphonomethyl) glycine”; Cat #337757-5G) for future use as a selection agent for these novel explants.
Post Storage Rehydration Method of the iVAE embryos: Dried maize embryos (iVAEs) were placed on a sterile plate of Regeneration Medium II) and incubated at room temperature for 1 hour. Afterward, sterile water was added and embryos were incubated at room temperature for an additional hour followed by gentile agitation to complete the rehydration process. Embryos were then placed on experimental media to determine survival as well as sensitivity to glyphosate. The rehydrated maize iVAEs were placed on media plates, evenly spaced, and each plate was sealed with porous tissue culture tape and incubated in growth chamber at 26° C. with 16/8 light/dark photoperiod with 60 μmol m-2 s-1. For up to 56 days of observation.
20 DAP LH244 ears were collected from self-pollinated plants in the greenhouse. The embryos were extracted using the iVAE protocol. The extracted and cleaned embryos were placed in a drying chamber with MgNO3 saturated salts for 4 days. LH244 embryos were frozen for 4 days, or until used, at −20° C. in a hermetically closed 50 mL Falcon tube
LH244 embryos were rehydrated as described in Example 9. Following rehydration, plates were set up using Regeneration II Medium. The first replicate has 30 embryos per plate, and the second only 22 per plate. The measurements are standardized to the number of surviving embryos, as measured by the number of embryos displaying coleoptile elongation. A subset of embryos was tested for viability using tetrazolium chloride (TTC).
We analyzed this experiment by counting the percent germination, looking at stress phenotype and using the viability stain tetrazolium chloride (TTC). In general, during germination, green tissue is healthy, purple tissue is stressed and producing anthocyanins, and silver or white tissue is not producing chlorophyll.

## c1ccc(CNc2ncnc3nc[nH]c23)cc1 [BAP, 6-benzylaminopurine]
[1]
  multiple bud/shoot induction in barley shoot tips: could induce multiple buds/shoots

## O=C(COc1ccc(Cl)cc1)N1CCN(Cc2ccc3c(c2)OCO3)CC1 [fipexide]
[1]; 3 ppm TDZ, 10 ppm fipexide
  explant health versus controls: looked healthier than controls on 2,4-D media
  explant phenotype after 2 weeks on bud induction media: multiple shooting/budding phenotype
[1]; 10 ppm fipexide, TDZ removed
  explant phenotype after 2 weeks on bud induction media: germinating phenotype
[1]; 100 ppm fipexide
  explant phenotype after 2 weeks on bud induction media: explant sensitivity

## O=C(Nc1ccccc1)Nc1cnns1 [TDZ, thidiazuron]
[1]; 3 ppm TDZ, 1 ppm 2,4-D
  explant phenotype after 2 weeks on bud induction media: multiple shooting/budding phenotype
[1]
  multiple bud/shoot induction in barley shoot tips: could induce multiple buds/shoots

## O=C(O)CNCP(=O)(O)O [glyphosate, N-(Phosphonomethyl) glycine]
[2]; 10 μM glyphosate treatment plates, at 27 days
  damage (loss of greening shoots): 90%
[2]; 50 μM glyphosate treatment plates, 10 days after start
  reduction in frequency of greening shoots (impairment): about 80%
[2]; after 49 days
  glyphosate concentration giving apparent reduction of anthocyanins synthesis: ≥ 100 µM
[2]; in response to glyphosate
  anthocyanin production in treated embryos: significant anthocyanin production
